The values that follow come from patent US20230348506A1, “MACROCYCLIC PANTETHEINE DERIVATIVES AND USES THEREOF” (VectivBio Comet AG, priority 2019, published 2023).

Common to all, as to assay type: cell-based, human
In assay [1] the test system is MMA Patient fibroblasts (GM01673, Coriell Institute for Medical Research). The assay can be described thus: Mitochondrial fusion and networking (high-content imaging). The following applies: 10 μM compound, 2 hours, compared to vehicle control. Details: key: Mitochondrial elongation and networking was described as slight, mild or good; Mitochondrial elongation and networking was described as slight, mild or good; Mitochondrial elongation and networking was described as slight, mild or good. The procedure:
Cells were seeded in 96-well plates (density 3000 cells/well) in culture minimum MEM (GIBCO, 10370-021) supplemented with 2 mM L-Glutamine (Thermo Fisher Scientific), 15% FBS (Thermo Fisher Scientific 26400044) and 1% penicillin/streptomycin. Cells were incubated for 48 hours (37° C, 5% CO2), then treated with 10 μM compounds from the present disclosure, 1% DMSO (vehicle) or 5 μM FCCP (control) for 2 hours in fasted conditional medium: Agilent XF DMEM (Agilent 103575-100), pH 7.4 supplemented with 10% FBS (Thermo Fisher Scientific 26400044), 0.03% penicillin/streptomycin 1 mM glucose, 2 mM L-glutamine and 1 mM pyruvate.
After treatment, media was removed, and cells were stained with 100 μl of 1×mixture dye solution of 1 μg/mL JC-1 (Invitrogen Cat #T3168) and 50 ng/ml MitoTracker deep red (Invitrogen Cat #M22426) at 37° C. for 30 minutes. Next, staining was removed, the cells were washed once with 150 μl PBS, and 150 μl of fasted conditional medium (described above) is added to each well. Analysis was carried out on live cells using a Thermo Scientific CellInsight CX7 LZR High-Content Screening Platform. Mitochondrial elongation and networking was described as slight, mild or good.

In assay [2] the test system is primary adherent fibroblast cell line derived from an Methylmalonic Acidemia (MMA) patient (GM01673, Coriell Institute for Medical Research). The assay can be described thus: Mitochondrial respiration (Seahorse XFe96, OCR), Spare Capacity AUC. The following applies: 10 μM compound; medium with 10 mM glucose, 2 mM glutamine, 1 mM pyruvate; 1 μM FCCP for 20 cycles; relative to vehicle. The method, then:
The effect of the compounds of the present disclosure on mitochondrial respiration was measured with a XFe96 Extracellular Flux Analyzer (Seahorse Bioscience, Agilent Technologies) and Oxygen consumption Rate (OCR) and Extracellular acidification rate (ECAR) determined.
Cell culture and treatments. Primary adherent fibroblasts were cultured in minimum essential medium (MEM) (Gibco, 25030081) supplemented with 2 mM L-Glutamine (Gibco, 25030081), 15% fetal bovine serum (FBS) (Gibco, 26400044) and 1% penicillin/streptomycin (Gibco, 5140122) at 37° C. and 5% CO2. Cells were collected for either passaging or experiment at ˜70-80% confluence. Cells were obtained by trypsinization and seeded at 10,000 cells/well in cell culture microplates (Seahorse Bioscience, 101085-004) and allowed to adhere for 48 hours in culture media. […]
Determining the optimized cell density and concentrations for stress test, such as FCCP, were achieved through methods well known to those of skill in the art. After baseline measurements of OCR, cells were challenged with compounds of the present disclosure at different concentrations (10 to 50 μM) or vehicle (DMSO, 0.1%) and a post-compound baseline was recorded. OCR was measured after sequentially adding to each well 1.5 μg/ml oligomycin (inhibitor of ATP synthase Sigma-Aldrich, 753531), then maximal OCR was determined with carbonyl cyanide 4-(trifluoromethoxy) phenylhydrazone (FCCP, Sigma-Aldrich, C2920), (uncoupler of oxidative phosphorylation) and 1.0 μM of rotenone (Sigma-Aldrich, R8875) plus antimycin A (Sigma-Aldrich, A8674) (inhibitors of mitochondrial complex I and III) for determination of rotenone-antimycin insensitive respiration together with Hoechst for nuclear staining in situ when normalized to cell counts. After the analysis and nuclear staining, the XFp microplate was transferred to the Cytation 5, and the nuclear images were captured, the individual nuclei were identified and counted by BioTek Gen5 software. […]

The test system of a further assay is HepG2 cells. The assay can be described thus: Glucose uptake (Glucose Uptake-Glo assay). The following applies: 10 μM compound; insulin control 100 nM. The procedure:
The effect of compounds from the present disclosure on glucose uptake was determined in HepG2 cells (ATCC, HB-8065) using the glucose uptake Glo Assay Kit (Promega, J1343 according to manufacturer instructions. HepG2 cells were cultured in complete DMEM-glucose media (Gibco) supplemented with 10% FBS (37° C. incubator with 5% CO2) and seeded in 96-well plates at 30,000 cells/well. After removing the complete media, 100 μL/well of serum-free, high-glucose DMEM media were added to the wells and incubated overnight (37° C. incubator with 5% CO2). Media was then replaced with 100 μL/well DPBS containing 0.6% BSA and starved for 1 hour. Next, DPBS was removed and 45 μl/well of insulin (100 nM) or compounds (10 μM-50 μM) were added to the wells and incubated for 10 minutes (37° C. incubator with 5% CO2). Insulin and compounds were prepared in DPBS with 0.6% BSA with a final DMSO concentration of 0.1%. Next, 5 μL of 2DG (10 mM) in DPBS were added per well and allowed to incubate for 20 minutes followed by addition of 25 μL stop buffer. 37.5 μL of the mixture were then transferred to a new plate and 12.5 μL of Neutralization buffer added to the wells. After, 50 μL of 2DG6P detection Reagent were added and incubated for 0.5-1 hour at room temperature. Luminescence was measured with 0.3-1 second integration on a luminometer. […]

On to `CC(C)(CO)[C@H]1OC(=O)CCC(=O)SCCNC(=O)CCNC1=O` [Compound 61, (R)-2-(1-hydroxy-2-methylpropan-2-yl)-1-oxa-11-thia-4,8-diazacyclopentadecane-3,7,12,15-tetraone], for which, in assay [1], the “mitochondrial elongation and networking” value is “slight”. Moreover, the “increase of Spare Capacity AUC” value in assay [2] is greater than 20%. Besides, the “stimulation of Glucose Uptake, % of insulin control” value with HepG2 cells is on record as “at least 15%”.
